Data from US20100081631A1, “METHODS AND COMPOSITIONS FOR TREATING GASTROINTENSTIAL DISORDERS” (priority 2006, published 2010).
Values belong to the compound of their own block, whether it stands above or below them.

Columns and labels:
[1] = system: PI3k/Akt pathway (Akt phosphorylation) in IEC-18 cells; test: Akt phosphorylation Western blot in IEC-18 cell lysates; assay type: cell-based, rat; conditions: 24 hours; for Akt phosphorylation: 5 μM SC-560, 10 μM celecoxib or 10 μM indomethacin
Description: Rat intestinal epithelial cells (IEC-18 cells) are immortalized normal epithelial cells purchased from the American Type Culture Collection (ATCC). For these experiments, IEC-18 cells were cultured in high glucose Delbecco's Modified Eagle's Medium (DMEM) at 37° C. under 5% CO2 and incubated for 24 hours with either a) 5 μM of the COX-1 inhibitor SC-560 (purchased from Sigma-Aldrich, St. Louis, Mo.), 10 μM of the COX-2 inhibitor celecoxib, or 10 μM of the COX-½ inhibitor indomethacin. Drugs were provided in a 0.1% dimethylsulfoxide (DMSO) vehicle.
The PI3k/Akt pathway is monitored using the following general assay procedure. Following incubation cell lysates are collected with lysis buffer containing phosphatase and proteinase inhibitors. The supernanats are collected and protein concentrations are measured. Then SDS(sodium dodecyl sulfate) sample buffers are made to make sure final protein concentration is equal in each sample and boiled for minutes at 100° C. Then the samples are loaded on to a 4%-12% pre-made SDS-PAGE (polyacrylamide gel electrophoresis) and the gel is developed under electrophoresis. When the samples reach the bottom of the gel, the gel is removed from the electrophoresis equipment and transferred to a nitrocellulose membrane and the membrane blocked with milk. The membrane is incubated with a primary antibody selective for either a) total Akt or b) phosphrylated Akt overnight at 4° C. A secondary antibody having a conjugated horseradish peroxidase (HRP) moiety is used to bind the constant regions of the primary antibodies. The membrane is washed under conditions favoring selective antibody binding. Finally, the HRP is detected using a enzymatically initiated chemiluminescent substrate such as Super Signal® ELISA Pico Substrates, available from Thermo Fisher Scientific.

IEC-18 cells = test: Doxorubicin/celecoxib-induced apoptosis of IEC-18 cells by flow cytometry; assay type: cell-based, rat; conditions: 48 hours
Description: IEC-18 cells were cultured in high glucose DMEM containing 10% fetal bovine serum (FBS), 1% penicillin, 1% streptomycin, and 50 unit insulin essentially as indicated in Example 101 for 48 hours in the presence of the 0.05 μg/ml chemotherapy agent doxorubicin to induce apoptosis. In the presence of 10 μM celecoxib (which inhibits endogenous prostaglandin PGE2 expression), apoptosis of doxorubicin-treated IEC-18 cells proceeds within 48 hours at such very low concentrations of doxorubicin. Finally, the cells collected by trypsin were subjected to flow cytometry analysis for identification of the percentage of cells in different stages of the cell cycle.
Cultured cells were prepared for flow cytometry by trypsinization and centrifugation. The cells were then washed with cold phosphate buffered saline solution (PBS), then fixed with cold 70% ethanol overnight. The cells were then again washed with PBS and stained with propidium iodide, a nucleic acid intercalating dye, in the presence of RNase for 30 minutes at room temperature. The cells were then sorted using the buffer provided by Becton-Dickenson, the maker of the flow cytometry equipment.
Additionally, using CellQuest® software (Becton-Dickenson) a quantification of the percent of apoptosis occurring in IEC-18 cells after 48 hours' incubation was performed. […]

[2] = target: T1, human EP4 prostaglandin receptor (Homo sapiens, UniProt P35408); test: Activity test measuring changes in intracellular cAMP in HEK-EBNA cells; assay type: cell-based; conditions: HEK-EBNA cells expressing human EP4, read-out: in vitro EC50 (concentration at 50% of maximal efficacy)
T1 construct: expressed in transfected cells; host or cells: HEK-EBNA cells
Description: The dosage of the prostaglandin EP4 agonist component employed in accordance with the present invention varies over a relatively wide range and depends on factors well known in the medicinal arts including, but not limited to: the weight of the individual to whom the agonist component is administered, the general health status/condition of such individual, the disease/condition sought to be treated/prevented by such administration, the severity of such disease/condition in such individual, the potency of the specific EP4 receptor agonist component being administered, the sensitivity of such individual to the specific agonist component being administered, the mode of administration, the age of such individual, the sex of such individual, the pregnancy status of such individual, the other ongoing drug therapies being administered to such individual and the like factors. The compound (Z)-7-{(1R,4S,5R)-5-[(E)-5-(3-chloro-benzo[b]thiophene-2-yl)-3-hydroxy-pent-1-enyl]-4-hydroxy-3,3-dimethyl-2-oxo-cyclopentyl}-hept-5-enoic acid has an in vitro EC50 (concentration at 50% of maximal efficacy) of between 0.03 and 0.1 nM in both the FLIPR® Ca^++ flux test and in an alternate activity test measuring changes in the intracellular concentration of cAMP in HEK-EBNA cells expressing the human EP4 prostaglandin receptor.

C57BL/6 mice [3] = test: Acetic acid-induced gastric ulcer model in mice; assay type: in vivo
C57BL/6 mice [4] = test: Acetic acid-induced gastric ulcer model in mice; assay type: in vivo; remark: listed apart in the source
Excerpt: Gastric ulcers were produced in C57BL/6 mice by using 40% acetic acid as follows. Animals were anesthetized. The abdomen of each animal was surgically opened, and the stomach exposed. A 3 mm curette was placed onto the anterior surface of each stomach. A solution of 40% acetic acid was placed inside the curette. The curette prevents damage to surrounding tissue. The acetic acid treatment causes damage to blood vessels of the stomach, producing chemical death to the mucous layer.
On the third day following induction of ulceration, the animals were given various treatments by oral gavage. First, vehicle (4% DMSO-corn oil) or a low dose (3 mg/kg/day) of indomethacin in 4% DMSO-corn oil was used. This dose of indomethacin has been reported not to induce gross lesions on the stomach, although it can inhibit the production of endogenous prostglandin PGE2.
On day 7 blood was withdrawn for hematology analysis from sacrificed animals, and subjected to automated testing for standard hematological parameters. Ulcer areas (defined as the regions of the stomach not covered by stomach mucosal epithelial cells) were measured by dissection microscopy for macroscopic analysis; additionally, the widest section of each ulcer sample was measured and observed as the size index under microscopy. The stomachs were processed for pathological analysis by dissection and section through the widest part of the ulcer. Sections were stained using hematoxylin & eosin.
Mice were then treated with 10 nM Compound 7 or the vehicle under otherwise identical conditions. In this experiment the vehicle was 4% DMSO in corn oil in a volume of 0.1 ml. The mice were sacrificed and the stomachs examined on either the 7th day or the 11th day following ulceration. […] Under dissection microscopy, the areas of the ulcers in mice treated with Compound 7 were 60% and 32% of the control on days 7 and 11, respectively. […] (FIG. 4B).

[5] = target: T1, human EP4 prostaglandin receptor; test: FLIPR Ca++ flux test; assay type: cell-based; conditions: cells expressing human EP4, read-out: in vitro EC50 (concentration at 50% of maximal efficacy)
Description: HEK-293 (EBNA) cells, stably expressing one type or subtype of recombinant human prostaglandin receptors (prostaglandin receptors expressed: hDP/Gqs5; hEP1; hEP2/Ggs5; hEP3A/Gqi5; hEP4/Ggs5; hFP; hIP; hTP), are cultured in 100 mm culture dishes in high-glucose DMEM medium containing 10% fetal bovine serum, 2 mM 1-glutamine, 250 μg/ml geneticin (G418) and 200 μg/ml hygromycin B as selection markers, and 100 units/ml penicillin G, 100 μg/ml streptomycin and 0.25 μg/ml amphotericin B.
Transfectant cells are seeded at a density of 5×10^4 cells per well in Biocoat®. Poly-D-lysine-coated black-wall, clear-bottom 96-well plates (Becton-Dickinson) and allowed to attach overnight in an incubator at 37° C. Cells are then washed two times with HBSS-HEPES buffer (Hanks Balanced Salt Solution without bicarbonate and phenol red, 20 mM HEPES, pH 7.4) using a Denley Cellwash plate washer (Labsystems). […]
Cells are excited with an Argon laser at 488 nm, and emission measured through a 510-570 nm bandwidth emission filter (FLIPR.™., Molecular Devices, Sunnyvale, Calif.). […] The peak increase in fluorescence intensity is recorded for each well. […] The peak fluorescence change in each drug-containing well is then expressed relative to the controls. […]

[6] = 0.1 mg/kg/d Compound 7 + 3 mg/kg/d indomethacin vs control mice
[7] = indomethacin 3 mg/kg/day oral gavage, day 7, vs vehicle

T1 sequence (P35408 whole entry): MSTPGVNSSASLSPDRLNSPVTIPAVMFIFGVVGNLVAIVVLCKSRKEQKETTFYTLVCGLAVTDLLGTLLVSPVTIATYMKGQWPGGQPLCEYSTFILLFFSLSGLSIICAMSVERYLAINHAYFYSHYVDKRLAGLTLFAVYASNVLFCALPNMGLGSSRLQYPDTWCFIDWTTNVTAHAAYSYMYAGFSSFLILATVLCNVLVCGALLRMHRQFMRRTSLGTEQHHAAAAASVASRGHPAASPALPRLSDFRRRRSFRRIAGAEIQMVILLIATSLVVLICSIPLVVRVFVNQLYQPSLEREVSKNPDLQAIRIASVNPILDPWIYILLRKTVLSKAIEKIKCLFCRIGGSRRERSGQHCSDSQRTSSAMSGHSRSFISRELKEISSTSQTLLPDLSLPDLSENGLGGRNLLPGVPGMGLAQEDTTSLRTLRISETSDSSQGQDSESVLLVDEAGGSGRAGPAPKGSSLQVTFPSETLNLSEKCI

SMILES: COc1ccc(-n2nc(C(F)(F)F)cc2-c2ccc(Cl)cc2)cc1 [SC-560]
Akt phosphorylation [1]: inhibited Akt phosphorylation

SMILES: COc1cccc2c1C(=O)c1c(O)c3c(c(O)c1C2=O)C[C@@](O)(C(=O)CO)C[C@@H]3O[C@H]1C[C@H](N)[C@H](O)[C@H](C)O1 [doxorubicin, reference compound]
percent apoptosis (IEC-18 cells; 0.05 μg/ml doxorubicin with 10 μM celecoxib): about 13%

EC50 [2]: 0.03 to 0.1 nM | EC50 [5]: 0.03 to 0.1 nM
SMILES: CC1(C)C(=O)[C@H](C/C=C\CCCC(=O)O)[C@@H](/C=C/C(O)CCc2sc3ccccc3c2Cl)[C@@H]1O (stereo partly drawn) [Compound 7, (Z)-7-{(1R,4S,5R)-5-[(E)-5-(3-chloro-benzo[b]thiophene-2-yl)-3-hydroxy-pent-1-enyl]-4-hydroxy-3,3-dimethyl-2-oxo-cyclopentyl}-hept-5-enoic acid]
Akt phosphorylation on co-incubation with indomethacin ([1]; 10 nM Compound 7 + 10 μM indomethacin vs indomethacin alone): maintained Akt phosphorylation at higher levels | percent apoptosis (IEC-18 cells; 10 nM Compound 7 added to 0.05 μg/ml doxorubicin + 10 μM celecoxib): approximately 5% | hematocrit (HCT) (C57BL/6 mice [3]; [6]): significantly greater | hemoglobin (HGB) (C57BL/6 mice [3]; [6]): significantly greater | number of red blood cells (RBC) (C57BL/6 mice [3]; 0.1 mg/kg/d Compound 7 + 3 mg/kg/d indomethacin vs control mice, n=20): significantly greater | blood loss (hematology) (C57BL/6 mice [3]; 0.1 mg/kg/d Compound 7 + 3 mg/kg/d indomethacin vs indomethacin alone): significantly less blood loss | ulcer sizes vs vehicle (C57BL/6 mice [4]; 10 nM Compound 7, vehicle 4% DMSO in corn oil, day 7 or 11): significantly smaller ulcer sizes | areas of the ulcers under dissection microscopy (C57BL/6 mice [4]; Compound 7, day 7): 60 % of the control | areas of the ulcers under dissection microscopy (C57BL/6 mice [4]; Compound 7, day 11): 32 % of the control | inflammatory cell infiltrations and necrotic tissue in granulation tissue (C57BL/6 mice [4]; Compound 7 vs control group): significantly less | gross and microscopic morphologies of the ulcer tissue (C57BL/6 mice [4]; Compound 7 vs vehicle, day 7): stimulates healing of ulcer and facilitate the removal of necrosis tissue

SMILES: COc1ccc2c(c1)c(CC(=O)O)c(C)n2C(=O)c1ccc(Cl)cc1 [indomethacin, reference compound]
Akt phosphorylation [1]: inhibited phosphorylation of Akt to a greater extent that did SC-560 or celecoxib | spontaneous healing of gastric ulcers (gross and microscopic ulcer size) (C57BL/6 mice [4]; indomethacin 3 mg/kg/day oral gavage from day 3, day 7, vs vehicle): delayed the spontaneous healing of gastric ulcers | blood loss at ulcer sites (C57BL/6 mice [4]; [7]): exacerbate blood loss at ulcer sites | inflammation (lymphocytes in the blood) (C57BL/6 mice [4]; [7]): exacerbated inflammation
